Reference: the supplement of paper PMC11061612

Key:
Selumetinib = compound: Cn1cnc2c(F)c(Nc3ccc(Br)cc3Cl)c(C(=O)NOCCO)cc21 [Selumetinib]; conditions: max 10 µM
In short: (§1)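 Cancer cell lines in 1536-well plates (7.5 μl DMEM/F12 or RPMI, 10% FBS) were held 24 hours at 37°C and 5% CO2 and then dosed for 72 hours at a final DMSO of typically 0.2%. Viability was taken from CellTiter-Glo 2.0 luminescence, scaled between blank-well and DMSO-well means. Curves were fitted as two-parameter logistic models with a non-linear mixed effects model, from which the single-agent IC50 was taken.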

SN-38 = compound: CCc1c2c(nc3ccc(O)cc13)-c1cc3c(c(=O)n1C2)COC(=O)[C@]3(O)CC [SN-38]; conditions: max 0.3 µM
In short: as §1

Capivasertib = compound: C1CN(CCC1(C(=O)N[C@@H](CCO)C2=CC=C(C=C2)Cl)N)C3=NC=NC4=C3C=CN4 [Capivasertib]
In short: as §1

Alisertib = compound: COc1cc(Nc2ncc3c(n2)-c2ccc(Cl)cc2C(c2c(F)cccc2OC)=NC3)ccc1C(=O)O [Alisertib]; conditions: max 10 µM
In short: as §1

AZD7648 = compound: Cc1cc2ncnn2cc1Nc1ncc2c(n1)n(C1CCOCC1)c(=O)n2C [AZD7648]; conditions: max 10 µM
In short: as §1

AZD1390 = compound: CC(C)n1c(=O)n(C)c2cnc3cc(F)c(-c4ccc(OCCCN5CCCCC5)nc4)cc3c21 [AZD1390]; conditions: max 0.3 µM
In short: as §1

Lapatinib = compound: CS(=O)(=O)CCNCc1ccc(-c2ccc3ncnc(Nc4ccc(OCc5cccc(F)c5)c(Cl)c4)c3c2)o1 [Lapatinib]; conditions: max 10 µM
In short: as §1

AZD4320 = compound: CN(CC[C@H](CSC1=CC=CC=C1)NC2=C(C=C(C=C2)S(=O)(=O)NC(=O)C3=CC=C(C=C3)N4CCC(CC4)[C@H](C5=CC=CC=C5C6=CC=C(C=C6)Cl)O)S(=O)(=O)C(F)(F)F)CCO [AZD4320]; conditions: max 1 µM
In short: as §1

Venetoclax = compound: CC1(C)CCC(CN2CCN(c3ccc(C(=O)NS(=O)(=O)c4ccc(NCC5CCOCC5)c([N+](=O)[O-])c4)c(Oc4cnc5[nH]ccc5c4)c3)CC2)=C(c2ccc(Cl)cc2)C1 [Venetoclax]; conditions: max 1 µM
In short: as §1

AZD6738 = compound: C[C@@H]1COCCN1C2=NC(=NC(=C2)C3(CC3)[S@](=N)(=O)C)C4=C5C=CNC5=NC=C4 [AZD6738]; conditions: max 10 µM
In short: as §1

Doxorubicin = compound: COc1cccc2c1C(=O)c1c(O)c3c(c(O)c1C2=O)C[C@@](O)(C(=O)CO)C[C@@H]3O[C@H]1C[C@H](N)[C@H](O)[C@H](C)O1 [Doxorubicin]; conditions: max 1 µM
In short: as §1

SG3199 = compound: CC1=CN2[C@@H](C1)C=NC3=CC(=C(C=C3C2=O)OC)OCCCCCOC4=C(C=C5C(=C4)N=C[C@@H]6CC(=CN6C5=O)C)OC [SG3199]; conditions: max 0.001 µM
In short: as §1

AZD2811 = compound: CCN(CCO)CCCOc1ccc2c(Nc3cc(CC(=O)Nc4cccc(F)c4)[nH]n3)ncnc2c1 [AZD2811]; conditions: max 1 µM
In short: as §1

Gefitinib = compound: COc1cc2ncnc(Nc3ccc(F)c(Cl)c3)c2cc1OCCCN1CCOCC1 [Gefitinib]; conditions: max 10 µM
In short: as §1

Olaparib = compound: O=C(c1cc(Cc2n[nH]c(=O)c3ccccc23)ccc1F)N1CCN(C(=O)C2CC2)CC1 [Olaparib]
In short: as §1

AZD0156 = compound: CN(C)CCCOc1ccc(-c2ccc3ncc4c(c3c2)n(C2CCOCC2)c(=O)n4C)cn1 [AZD0156]; conditions: max 3 µM
In short: as §1

AZD5153 = compound: COc1nnc2ccc(N3CCC(c4ccc(OCCN5CCN(C)C(=O)[C@H]5C)cc4)CC3)nn12 [AZD5153]; conditions: max 1 µM
In short: as §1

Dasatinib = compound: CC1=C(C(=CC=C1)Cl)NC(=O)C2=CN=C(S2)NC3=CC(=NC(=N3)C)N4CCN(CC4)CCO [Dasatinib]; conditions: max 2 µM
In short: as §1

Prexasertib = compound: COc1cccc(OCCCN)c1-c1cc(Nc2cnc(C#N)cn2)n[nH]1 [Prexasertib]; conditions: max 1 µM
In short: as §1

Savolitinib = compound: C[C@@H](c1ccc2nccn2c1)n1nnc2ncc(-c3cnn(C)c3)nc21 [Savolitinib]; conditions: max 1 µM
In short: as §1

AZD1775 = compound: C=CCn1c(=O)c2cnc(Nc3ccc(N4CCN(C)CC4)cc3)nc2n1-c1cccc(C(C)(C)O)n1 [AZD1775]; conditions: max 3 µM
In short: as §1

Trametinib = compound: CC(=O)Nc1cccc(-n2c(=O)n(C3CC3)c(=O)c3c(Nc4ccc(I)cc4F)n(C)c(=O)c(C)c32)c1 [Trametinib]; conditions: max 1 µM
In short: as §1

AZD5991 = compound: Cc1c2c(nn1C)CSCc1cc(n(C)n1)CSc1cc(c3ccccc3c1)OCCCc1c(C(=O)O)n(C)c3c-2c(Cl)ccc13 [AZD5991]; conditions: max 1 µM
In short: as §1

Crizotinib = compound: C[C@@H](Oc1cc(-c2cnn(C3CCNCC3)c2)cnc1N)c1c(Cl)ccc(F)c1Cl [Crizotinib]; conditions: max 10 µM
In short: as §1

AZD8186 = compound: C[C@@H](Nc1cc(F)cc(F)c1)c1cc(C(=O)N(C)C)cc2c(=O)cc(N3CCOCC3)oc12 [AZD8186]; conditions: max 3 µM
In short: as §1

Palbociclib = compound: CC(=O)c1c(C)c2cnc(Nc3ccc(N4CCNCC4)cn3)nc2n(C2CCCC2)c1=O [Palbociclib]; conditions: max 10 µM
In short: as §1

Taselisib = compound: Cc1nc(-c2cn3c(n2)-c2ccc(-c4cnn(C(C)(C)C(N)=O)c4)cc2OCC3)n(C(C)C)n1 [Taselisib]; conditions: max 10 µM
In short: as §1

Cell Line	IC50, cell viability 72 h (Selumetinib) [µM]	IC50, cell viability 72 h (SN-38) [nM]	IC50, cell viability 72 h (Capivasertib; max 10 µM) [µM]	IC50, cell viability 72 h (Alisertib) [µM]	IC50, cell viability 72 h (AZD7648) [µM]	IC50, cell viability 72 h (AZD1390) [nM]	IC50, cell viability 72 h (Lapatinib) [µM]	IC50, cell viability 72 h (AZD4320) [nM]	IC50, cell viability 72 h (Venetoclax) [nM]	IC50, cell viability 72 h (AZD6738) [µM]	IC50, cell viability 72 h (Doxorubicin) [nM]	IC50, cell viability 72 h (SG3199) [nM]	IC50, cell viability 72 h (AZD2811) [nM]	IC50, cell viability 72 h (Gefitinib) [µM]	IC50, cell viability 72 h (Olaparib; max 10 µM) [µM]	IC50, cell viability 72 h (AZD0156) [nM]	IC50, cell viability 72 h (AZD5153) [nM]	IC50, cell viability 72 h (Dasatinib) [nM]	IC50, cell viability 72 h (Prexasertib) [nM]	IC50, cell viability 72 h (Savolitinib) [nM]	IC50, cell viability 72 h (AZD1775) [nM]	IC50, cell viability 72 h (Trametinib) [nM]	IC50, cell viability 72 h (AZD5991) [nM]	IC50, cell viability 72 h (Crizotinib) [µM]	IC50, cell viability 72 h (AZD8186) [nM]	IC50, cell viability 72 h (Palbociclib) [µM]	IC50, cell viability 72 h (Taselisib) [µM]	IC50, cell viability 72 h (Capivasertib; max 3 µM) [µM]	IC50, cell viability 72 h (Olaparib; max 3 µM) [µM]
MDST8 (Colorectal Carcinoma)	1.15	15.6	> 10	> 10	> 10	> 300	> 10	890	> 1000	7.45	224	> 1	> 1000	> 10	> 10	> 3000	> 1000	> 2000	25	> 1000	875	19.9	> 1000	> 10	> 3000	> 10	> 10	–	–
A549 (Lung Adenocarcinoma)	1.05	70	6.93	2.34	> 10	> 300	2.75	> 1000	> 1000	6.07	309	> 1	777	> 10	> 10	> 3000	95.2	170	> 1000	> 1000	2460	29.7	> 1000	6.62	> 3000	8.16	1.72	–	–
JSC-1 (B-Cell Non-Hodgkin's Lymphoma)	4.68	2.11	7.45	7.11	> 10	> 300	> 10	> 1000	> 1000	1.86	120	> 1	> 1000	> 10	> 10	> 3000	66.7	> 2000	5.24	> 1000	328	260	33.4	6.19	> 3000	5.84	> 10	–	–
A498 (Kidney Carcinoma)	> 10	> 300	4.66	> 10	> 10	> 300	> 10	> 1000	> 1000	> 10	> 1000	> 1	> 1000	> 10	> 10	> 3000	> 1000	> 2000	201	> 1000	1690	> 1000	> 1000	> 10	425	> 10	9.45	–	–
8-MG-BA (Glioblastoma)	> 10	15.4	> 10	> 10	> 10	> 300	8.81	> 1000	> 1000	2.24	393	> 1	> 1000	> 10	> 10	> 3000	136	255	21.1	> 1000	430	> 1000	676	8.8	> 3000	> 10	3.73	–	–
COR-L311 (Small Cell Lung Carcinoma)	> 10	3.07	3.02	1.51	> 10	> 300	> 10	1.92	208	> 10	685	> 1	75.4	> 10	> 10	> 3000	175	> 2000	107	> 1000	910	> 1000	> 1000	2.97	> 3000	> 10	1.61	–	–
COLO-824 (Breast Carcinoma)	> 10	> 300	7.34	3.01	> 10	> 300	7.96	33.3	214	5.51	> 1000	> 1	55.8	> 10	> 10	> 3000	233	> 2000	64.6	> 1000	868	> 1000	> 1000	4.32	> 3000	> 10	2.46	–	–
PA-1 (Ovarian Carcinoma)	> 10	19.6	0.941	0.238	> 10	> 300	5.15	> 1000	> 1000	3.17	209	> 1	> 1000	> 10	> 10	> 3000	41.1	30.2	187	> 1000	543	869	80.7	3.09	1060	1.62	0.248	–	–
SISO (Cervical Carcinoma)	> 10	23.6	> 10	6.21	> 10	> 300	> 10	> 1000	> 1000	> 10	290	> 1	> 1000	> 10	> 10	> 3000	> 1000	> 2000	237	> 1000	1530	> 1000	> 1000	> 10	> 3000	> 10	> 10	–	–
CAS-1 (Glioblastoma)	> 10	202	7.05	4.13	> 10	> 300	> 10	> 1000	> 1000	> 10	> 1000	> 1	> 1000	> 10	> 10	> 3000	345	931	158	> 1000	1600	465	> 1000	> 10	> 3000	> 10	> 10	–	–
CAL-29 (Bladder Carcinoma)	> 10	14.3	> 10	> 10	> 10	> 300	> 10	> 1000	> 1000	6.08	> 1000	> 1	> 1000	> 10	> 10	> 3000	> 1000	> 2000	41.8	> 1000	762	> 1000	> 1000	> 10	> 3000	> 10	0.218	–	–
A3-KAW (B-Cell Non-Hodgkin's Lymphoma)	> 10	3.18	> 10	0.0686	> 10	> 300	> 10	> 1000	> 1000	0.355	86.3	> 1	887	> 10	8.45	1350	11.1	> 2000	7.37	> 1000	117	997	21.7	3.98	> 3000	1.3	> 10	–	–
NCI-H1693 (Lung Adenocarcinoma)	> 10	87.2	> 10	> 10	> 10	> 300	> 10	> 1000	> 1000	> 10	> 1000	> 1	> 1000	> 10	> 10	> 3000	> 1000	> 2000	> 1000	> 1000	> 3000	> 1000	> 1000	> 10	> 3000	> 10	> 10	–	–
OS-RC-2 (Kidney Carcinoma)	> 10	> 300	> 10	> 10	> 10	> 300	> 10	> 1000	> 1000	> 10	> 1000	> 1	> 1000	> 10	> 10	> 3000	> 1000	> 2000	433	> 1000	> 3000	> 1000	> 1000	> 10	1910	> 10	> 10	–	–
SK-MES-1 (Squamous Cell Lung Carcinoma)	> 10	30.5	> 10	> 10	> 10	> 300	6.63	> 1000	> 1000	8	> 1000	> 1	> 1000	> 10	> 10	> 3000	> 1000	> 2000	60.5	> 1000	1360	178	> 1000	> 10	> 3000	> 10	4.88	–	–
Hs-445 (Non-Cancerous)	> 10	3.33	3.88	> 10	> 10	> 300	> 10	224	> 1000	2.09	146	> 1	> 1000	> 10	> 10	> 3000	> 1000	> 2000	3.9	> 1000	134	> 1000	213	> 10	> 3000	> 10	9.18	–	–
BT-483 (Breast Carcinoma)	–	–	–	–	–	–	–	–	–	–	–	–	–	–	–	> 3000	–	–	–	–	> 3000	–	–	–	–	–	–	> 3	> 3
